Six compounds from US11566057B2, “Long-acting co-agonists of the glucagon and GLP-1 receptors” (Merck Sharp & Dohme Corp., priority 2017, dated 2023) can be followed below.

As a reminder, the EC50 is the concentration that produces a half-maximal response.

Like-named read-outs stand apart in the source and are kept apart here. Numbered stars: 1 amine (or outer) side, 2 acyl side, 3 side chain; on linkers, the order of the positions; unused ones are H or OH. Square brackets hold non-standard residues; d marks the D form. Side chains are listed from the residue outwards. Peptide text beside a SMILES is read from it. * marks the point of attachment. C20 diacid = O=C(O)CCCCCCCCCCCCCCCCCCC(=O)*; Phe(4-CH2NH2) = NCc1ccc(C[C@H](N)C(=O)O)cc1; C18 diacid = O=C(O)CCCCCCCCCCCCCCCCC(=O)*; γGlu = O=C(O)[C@H](CCC(=O)[*:2])N[*:1]; Met(O2) = CS(=O)(=O)CC[C@H](N)C(=O)O; αMeD = C[C@](N)(CC(=O)O)C(=O)O; αMeS = C[C@](N)(CO)C(=O)O; AEEA = NCCOCCOCC(=O)O; Aib = CC(C)(N)C(=O)O

One experiment deals with T1, human GCGR (Homo sapiens, UniProt P47871).
T1 construct: expressed in transfected cells; growth medium holds Blasticidin and Hygromycin
T1 sequence (P47871 26-477): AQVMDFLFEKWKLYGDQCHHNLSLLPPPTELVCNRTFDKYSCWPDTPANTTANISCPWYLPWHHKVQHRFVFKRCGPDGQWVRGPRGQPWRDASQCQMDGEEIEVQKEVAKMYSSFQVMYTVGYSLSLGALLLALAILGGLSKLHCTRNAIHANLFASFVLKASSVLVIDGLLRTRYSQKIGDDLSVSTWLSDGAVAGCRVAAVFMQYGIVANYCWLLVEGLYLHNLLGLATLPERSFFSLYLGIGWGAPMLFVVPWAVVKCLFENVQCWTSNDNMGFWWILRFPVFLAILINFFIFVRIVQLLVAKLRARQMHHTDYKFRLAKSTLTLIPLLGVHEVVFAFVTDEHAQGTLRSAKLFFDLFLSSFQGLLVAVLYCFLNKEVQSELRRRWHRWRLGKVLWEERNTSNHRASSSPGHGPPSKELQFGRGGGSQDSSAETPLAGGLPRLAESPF
In words: cAMP activity assay at the Glucagon receptor (GCGR). The experiment is classed as cell-based. The note with it: for hGCGR/hGLP1R (hTone): ratio of GCGR EC50 to GLP1R EC50. The procedure, abridged:
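Peptides serially diluted from DMSO (10 points) and added to frozen-stock cells bearing human GLP1R (10,000 cells/well) or GCGR (30,000 cells/well), 1 h at RT, dark. EC50 by four-parameter logistic fit of HitHunter cAMPXS luminescence, read following overnight RT incubation.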

The target in the next experiment is T2, human GLP1R (Homo sapiens, UniProt P43220).
T2 construct: expressed in transfected cells; growth medium holds Blasticidin and Hygromycin
T2 sequence (P43220 24-463): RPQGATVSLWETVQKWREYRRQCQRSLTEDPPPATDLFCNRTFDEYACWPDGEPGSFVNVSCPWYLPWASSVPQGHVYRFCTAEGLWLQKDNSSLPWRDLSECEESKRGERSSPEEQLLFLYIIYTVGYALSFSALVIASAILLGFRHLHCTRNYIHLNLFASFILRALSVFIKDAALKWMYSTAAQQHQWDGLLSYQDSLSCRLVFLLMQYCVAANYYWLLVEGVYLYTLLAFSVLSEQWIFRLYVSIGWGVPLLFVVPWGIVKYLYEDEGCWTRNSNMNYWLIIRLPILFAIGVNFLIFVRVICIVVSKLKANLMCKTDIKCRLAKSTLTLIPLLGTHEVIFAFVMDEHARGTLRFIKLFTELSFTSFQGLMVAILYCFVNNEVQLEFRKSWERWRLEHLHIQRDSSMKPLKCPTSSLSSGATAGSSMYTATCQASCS
In words: cAMP activity assay at the GLP-1 receptor (GLP1R). Type of experiment: cell-based. The protocol: Activity of the peptides at the Glucagon receptor (GCGR) and GLP-1 receptor (GLP1R) was measured in a cAMP activity assay.
GCG/GLP-1 receptor co-agonist peptides were dissolved in 100% DMSO (dimethyl sulfoxide) and serially diluted to generate 10 point titrations. The peptide solutions were then transferred into 384-well assay plates (150 nL/well). Assay ready frozen cells expressing human GLP1R or human GCGR were suspended in growth media consisting of DMEM medium (GIBCO®), 10% FBS (GIBCO®), 1×NEAA(GIBCO®), 1×P/S (GIBCO®), 10 ug/mL Blasticidin (GIBCO®) and 200 μg/mL Hygromycin (GIBCO®). […] The cell suspensions (15 μL) were then added to the assay plates containing the peptide solutions (30,000 cells/well for human GCGR; 10,000 cells/well for human GLP1R). The cells were incubated for 1 hour at room temperature in the dark. Production of cAMP was determined using HitHunter™ cAMPXS kits (DiscoverX) following manufacturer protocol. The plates were incubated for overnight at room temperature in the dark. Luminescence was measured using an EnVision Multilabel plate reader (Perkin Elmer). Native GLP-1 and Glucagon (Bachem) are used as control peptides. EC50 values were calculated using uses a 4 parameter logistic fit based on the Levenberg-Marquardt algorithm.

Setting [1] is: summary statement: EC50 at each of the glucagon and GLP-1 receptors, read-out: EC50 at the glucagon receptor.
[2] abbreviates: summary statement: EC50 at each of the glucagon and GLP-1 receptors, read-out: EC50 at the GLP-1 receptor.
[3] abbreviates: cells expressing human GLP1R, cAMP production, buffer with or without 20% human serum (not stated which), read-out: GLP1R EC50 human.
Where [4] appears, read: cells expressing human GCGR, cAMP production, buffer with or without 20% human serum (not stated which), read-out: GCGR EC50 human.

Consider `CC(C)C[C@H](NC(=O)[C@H](Cc1ccc(O)cc1)NC(=O)[C@H](CCCCN)NC(=O)[C@H](CO)NC(=O)[C@H](Cc1ccc(O)cc1)NC(=O)[C@H](CC(=O)O)NC(=O)[C@H](CO)NC(=O)[C@@H](NC(=O)[C@H](Cc1ccccc1)NC(=O)[C@@H](NC(=O)CNC(=O)[C@H](CCC(N)=O)NC(=O)[C@](C)(CO)NC(=O)[C@@H](N)Cc1c[nH]cn1)[C@@H](C)O)[C@@H](C)O)C(=O)N[C@@H](CC(=O)O)C(=O)NC(C)(C)C(=O)N[C@@H](CCCNC(=N)N)C(=O)N[C@@H](C)C(=O)N[C@@H](C)C(=O)N[C@@H](CCCCNC(=O)COCCOCCNC(=O)COCCOCCNC(=O)CC[C@H](NC(=O)CCCCCCCCCCCCCCCCC(=O)O)C(=O)O)C(=O)N[C@@H](CC(=O)O)C(=O)N[C@@H](Cc1ccccc1)C(=O)N[C@H](C(=O)N[C@@H](CCC(N)=O)C(=O)N[C@@H](Cc1c[nH]c2ccccc12)C(=O)N[C@@H](CC(C)C)C(=O)N[C@@H](CCS(C)(=O)=O)C(=O)N[C@@](C)(CC(=O)O)C(=O)N[C@H](C(N)=O)[C@@H](C)O)C(C)C` [TP620] (H-H[αMeS]QGTFTSDYSKYLD[Aib]RAAK([AEEA-AEEA-γGlu-C18 diacid])DFVQWL[Met(O2)][αMeD]T-NH2; N-terminus assumed), for which, on human GCGR, the “hGCGR/hGLP1R (hTone)” value was 0.1. For the same compound, the EC50 on human GCGR (setting [1]) and at human GLP1R (setting [2]) was below 5 nM throughout.
`CC(C)C[C@H](NC(=O)[C@H](Cc1ccc(O)cc1)NC(=O)[C@H](CCCCN)NC(=O)[C@H](CO)NC(=O)[C@H](Cc1ccc(O)cc1)NC(=O)[C@H](CC(=O)O)NC(=O)[C@H](CO)NC(=O)[C@@H](NC(=O)[C@H](Cc1ccccc1)NC(=O)[C@@H](NC(=O)CNC(=O)[C@H](CCC(N)=O)NC(=O)[C@](C)(CO)NC(=O)[C@@H](N)Cc1c[nH]cn1)[C@@H](C)O)[C@@H](C)O)C(=O)N[C@@H](CC(=O)O)C(=O)N[C@@H](C)C(=O)N[C@@H](CCCNC(=N)N)C(=O)N[C@@H](C)C(=O)N[C@@H](C)C(=O)N[C@@H](CCC(N)=O)C(=O)N[C@@H](CCCCNC(=O)COCCOCCNC(=O)COCCOCCNC(=O)CC[C@H](NC(=O)CCCCCCCCCCCCCCCCC(=O)O)C(=O)O)C(=O)N[C@@H](Cc1ccccc1)C(=O)N[C@H](C(=O)N[C@@H](CCC(N)=O)C(=O)N[C@@H](Cc1c[nH]c2ccccc12)C(=O)N[C@@H](CC(C)C)C(=O)N[C@@H](CCS(C)(=O)=O)C(=O)N[C@@](C)(CC(=O)O)C(=O)N[C@H](C(N)=O)[C@@H](C)O)C(C)C` [TP617] (H-H[αMeS]QGTFTSDYSKYLDARAAQK([AEEA-AEEA-γGlu-C18 diacid])FVQWL[Met(O2)][αMeD]T-NH2): the “hGCGR/hGLP1R (hTone)” value at human GCGR turned out to be 0.8. In addition, the half-maximal effective concentration (EC50) on human GCGR (setting [1]) was below 5 nM; at human GLP1R (setting [3]), 0.76 nM; on human GLP1R (setting [2]), below 5 nM.
On to `CC(C)C[C@H](NC(=O)[C@H](Cc1ccc(O)cc1)NC(=O)[C@H](CCCCN)NC(=O)[C@H](CO)NC(=O)[C@H](Cc1ccc(O)cc1)NC(=O)[C@H](CC(=O)O)NC(=O)[C@H](CO)NC(=O)[C@@H](NC(=O)[C@H](Cc1ccccc1)NC(=O)[C@@H](NC(=O)CNC(=O)[C@H](CCC(N)=O)NC(=O)C(C)(C)NC(=O)[C@@H](N)Cc1c[nH]cn1)[C@@H](C)O)[C@@H](C)O)C(=O)N[C@@H](CC(=O)O)C(=O)N[C@@H](C)C(=O)N[C@@H](CCCNC(=N)N)C(=O)N[C@@H](C)C(=O)N[C@@H](C)C(=O)N[C@@H](CCCCNC(=O)COCCOCCNC(=O)CC[C@H](NC(=O)CCCCCCCCCCCCCCCCCCC(=O)O)C(=O)O)C(=O)N[C@@H](CC(=O)O)C(=O)N[C@@H](Cc1ccccc1)C(=O)N[C@H](C(=O)N[C@@H](CCC(N)=O)C(=O)N[C@@H](Cc1c[nH]c2ccccc12)C(=O)N[C@@H](CC(C)C)C(=O)N[C@@H](CCS(C)(=O)=O)C(=O)N[C@@](C)(CC(=O)O)C(=O)N[C@H](C(N)=O)[C@@H](C)O)C(C)C` [TP629] (H-H[Aib]QGTFTSDYSKYLDARAAK([AEEA-γGlu-C20 diacid])DFVQWL[Met(O2)][αMeD]T-NH2; N-terminus assumed), for which, at human GCGR, the “hGCGR/hGLP1R (hTone)” value is listed as 1.4. Further, the EC50 on human GCGR (setting [1]) and at human GLP1R (setting [2]) was below 5 nM throughout.
On to `CC(C)C[C@H](NC(=O)[C@H](Cc1c[nH]c2ccccc12)NC(=O)[C@H](CCC(N)=O)NC(=O)[C@@H](NC(=O)[C@H](Cc1ccccc1)NC(=O)[C@H](CC(=O)O)NC(=O)[C@H](CCCCNC(=O)COCCOCCNC(=O)COCCOCCNC(=O)CC[C@H](NC(=O)CCCCCCCCCCCCCCCCCCC(=O)O)C(=O)O)NC(=O)[C@H](C)NC(=O)[C@H](C)NC(=O)[C@H](CCCNC(=N)N)NC(=O)C(C)(C)NC(=O)[C@H](CC(=O)O)NC(=O)[C@H](CC(C)C)NC(=O)[C@H](Cc1ccc(O)cc1)NC(=O)[C@H](CCCCN)NC(=O)[C@H](CO)NC(=O)[C@H](Cc1ccc(O)cc1)NC(=O)[C@H](CC(=O)O)NC(=O)[C@H](CO)NC(=O)[C@@H](NC(=O)[C@H](Cc1ccccc1)NC(=O)[C@@H](NC(=O)CNC(=O)[C@H](CCC(N)=O)NC(=O)[C@](C)(CO)NC(=O)[C@@H](N)Cc1c[nH]cn1)[C@@H](C)O)[C@@H](C)O)C(C)C)C(=O)N[C@@H](CCS(C)(=O)=O)C(=O)N[C@@H](CC(=O)O)C(=O)N[C@H](C(N)=O)[C@@H](C)O` [TP593] (H-H[αMeS]QGTFTSDYSKYLD[Aib]RAAK([AEEA-AEEA-γGlu-C20 diacid])DFVQWL[Met(O2)]DT-NH2), for which the values for the concentration giving a half-maximal response (EC50) on human GCGR (setting [4]) and at human GLP1R (setting [3]) were 0.73 nM and 4.95 nM, respectively. The “hGCGR/hGLP1R (hTone)” value on human GCGR is listed as below 0.15.
As to `CC(C)C[C@H](NC(=O)[C@H](Cc1ccc(O)cc1)NC(=O)[C@H](CCCCN)NC(=O)[C@H](CO)NC(=O)[C@H](Cc1ccc(O)cc1)NC(=O)[C@H](CC(=O)O)NC(=O)[C@H](CO)NC(=O)[C@@H](NC(=O)[C@H](Cc1ccccc1)NC(=O)[C@@H](NC(=O)CNC(=O)[C@H](CCC(N)=O)NC(=O)C(C)(C)NC(=O)[C@@H](N)Cc1c[nH]cn1)[C@@H](C)O)[C@@H](C)O)C(=O)N[C@@H](CC(=O)O)C(=O)N[C@@H](C)C(=O)N[C@@H](CCCNC(=N)N)C(=O)N[C@@H](C)C(=O)N[C@@H](C)C(=O)N[C@@H](CCCCNC(=O)COCCOCCNC(=O)COCCOCCNC(=O)CC[C@H](NC(=O)CCCCCCCCCCCCCCCCC(=O)O)C(=O)O)C(=O)N[C@@H](CCC(=O)O)C(=O)N[C@@H](Cc1ccccc1)C(=O)N[C@H](C(=O)N[C@@H](CCC(N)=O)C(=O)N[C@@H](Cc1c[nH]c2ccccc12)C(=O)N[C@@H](CC(C)C)C(=O)N[C@@H](CCS(C)(=O)=O)C(=O)N[C@@](C)(CC(=O)O)C(=O)N[C@H](C(N)=O)[C@@H](C)O)C(C)C` [TP713] (H-H[Aib]QGTFTSDYSKYLDARAAK([AEEA-AEEA-γGlu-C18 diacid])EFVQWL[Met(O2)][αMeD]T-NH2; N-terminus assumed), the “hGCGR/hGLP1R (hTone)” value at human GCGR was found to be 2.2. In addition, the values for the EC50 on human GCGR (setting [1]), on human GLP1R (setting [3]) and on human GLP1R (setting [2]) were below 5 nM, 0.71 nM and below 5 nM, respectively.
Take `CC(C)C[C@H](NC(=O)[C@H](Cc1ccc(O)cc1)NC(=O)[C@H](CCCCN)NC(=O)[C@H](CO)NC(=O)[C@H](Cc1ccc(O)cc1)NC(=O)[C@H](CC(=O)O)NC(=O)[C@H](CO)NC(=O)[C@@H](NC(=O)[C@H](Cc1ccccc1)NC(=O)[C@@H](NC(=O)CNC(=O)[C@H](CCC(N)=O)NC(=O)C(C)(C)NC(=O)[C@@H](N)Cc1c[nH]cn1)[C@@H](C)O)[C@@H](C)O)C(=O)N[C@@H](CC(=O)O)C(=O)N[C@@H](C)C(=O)N[C@@H](CCCNC(=N)N)C(=O)N[C@@H](C)C(=O)N[C@@H](C)C(=O)N[C@@H](Cc1ccc(CNC(=O)COCCOCCNC(=O)CC[C@H](NC(=O)CCCCCCCCCCCCCCCCC(=O)O)C(=O)O)cc1)C(=O)N[C@@H](CC(=O)O)C(=O)N[C@@H](Cc1ccccc1)C(=O)N[C@H](C(=O)N[C@@H](CCC(N)=O)C(=O)N[C@@H](Cc1c[nH]c2ccccc12)C(=O)N[C@@H](CC(C)C)C(=O)N[C@@H](CC(C)C)C(=O)N[C@@H](CC(=O)O)C(=O)N[C@H](C(N)=O)[C@@H](C)O)C(C)C` [TP635] (H-H[Aib]QGTFTSDYSKYLDARAA[Phe(4-CH2NH2)]([AEEA-γGlu-C18 diacid])DFVQWLLDT-NH2): the EC50 is 0.46 nM at human GCGR (setting [4]), below 5 nM on human GCGR (setting [1]) and below 5 nM on human GLP1R (setting [2]). Besides, the “hGCGR/hGLP1R (hTone)” value at human GCGR is 0.2.
